Measurements: US6569836B2, “6-O-alkyl-2-nor-2-substituted ketolide derivatives” (Abbott Laboratories, priority 1999, dated 2003)

Assays:
Test in all cases: In vitro antibacterial activity, agar dilution MIC
Escherichiacoli JUHL = assay type: cell-based, Escherichia coli; details: code QQ, BHI agar, 35-37° C., 20-24 hours, unit assumed
Method: (§1) Each plate was inoculated with 1:100 (or 1:10 for slow-growing strains, such as Micrococcus and Streptococcus) dilutions of up to 32 different microorganisms, using a Steers replicator block. The inoculated plates were incubated at 35-37° C. for 20-24 hours. In addition, a control plate using BHI agar with no test compound was prepared and incubated at the beginning and end of each test. A plate containing erythromycin A was also prepared to provide test-to-test comparability. […] After incubation, each plate was visually inspected. The minimum inhibitory concentration (MIC) was defined as the lowest concentration of drug yielding no growth, a slight haze, or sparsely isolated colonies on the inoculum spot as compared to the growth control.

Escherichiacoli SS = assay type: cell-based, Escherichia coli; details: code RR, BHI agar, 35-37° C., 20-24 hours, unit assumed
Method: as §1

[1] = system: Haemophilislnfluenzae DILL AMP R; assay type: cell-based, Haemophilus influenzae; details: code WW, BHI agar, 35-37° C., 20-24 hours, unit assumed
Method: Representative compounds of the present invention were assayed in vitro for antibacterial activity as follows: twelve petri dishes containing successive aqueous dilutions of the test compound mixed with 10 mL of sterilized Brain Heart Infusion (BHI) agar (Difco 0418-01-5) were prepared. Each plate was inoculated with 1:100 (or 1:10 for slow-growing strains, such as Micrococcus and Streptococcus) dilutions of up to 32 different microorganisms, using a Steers replicator block. The inoculated plates were incubated at 35-37° C. for 20-24 hours. In addition, a control plate using BHI agar with no test compound was prepared and incubated at the beginning and end of each test.
A plate containing erythromycin A was also prepared to provide test-to-test comparability.
After incubation, each plate was visually inspected. The minimum inhibitory concentration (MIC) was defined as the lowest concentration of drug yielding no growth, a slight haze, or sparsely isolated colonies on the inoculum spot as compared to the growth control.

[2] = system: Streptococcus Pneumonia 5979; assay type: cell-based; details: code ZZ, BHI agar, 35-37° C., 20-24 hours, unit assumed
Method: as §1, with “test.” for “test. A plate containing erythromycin A was also prepared to provide test-to-test comparability.”

[3] = system: Micrococcusluteus ATCC 4698; assay type: cell-based, Micrococcus luteus; details: code PP, BHI agar, 35-37° C., 20-24 hours, unit assumed
Method: as §1

[4] = system: Streptococcus Pneumonia ATCC 6303; assay type: cell-based; details: code XX, BHI agar, 35-37° C., 20-24 hours, unit assumed
Method: as §1

[5] = system: Mycobacterium smegmatis ATCC 114; assay type: cell-based; details: code UU, BHI agar, 35-37° C., 20-24 hours, unit assumed
Method: as §1

[6] = system: Streptococcus pyogenes EES61; assay type: cell-based; details: code LL, BHI agar, 35-37° C., 20-24 hours, unit assumed
Method: as §1

[7] = system: Streptococcus bovis A-5169; assay type: cell-based; details: code JJ, BHI agar, 35-37° C., 20-24 hours, unit assumed
Method: as §1

[8] = system: Staphylococcus aureus 1775; assay type: cell-based; details: code GG, BHI agar, 35-37° C., 20-24 hours, unit assumed
Method: as §1

[9] = system: Staphylococcus aureus A-5177; assay type: cell-based; details: code BB, BHI agar, 35-37° C., 20-24 hours, unit assumed
Method: as §1

[10] = system: Streptococcus agalactiae CMX 508; assay type: cell-based; details: code KK, BHI agar, 35-37° C., 20-24 hours, unit assumed
Method: as §1

Candida albicans CCH 442 = assay type: cell-based; details: code TT, BHI agar, 35-37° C., 20-24 hours, unit assumed
Method: as §1

[11] = system: Staphylococcus aureus ATCC 6538P; assay type: cell-based; details: code AA, BHI agar, 35-37° C., 20-24 hours, unit assumed
Method: as §1

[12] = system: Streptococcus Pneumonia 5649; assay type: cell-based; details: code ZA, BHI agar, 35-37° C., 20-24 hours, unit assumed
Method: as §1

[13] = system: Streptococcus Pneumonia GYR 1171; assay type: cell-based; details: code YY, BHI agar, 35-37° C., 20-24 hours, unit assumed
Method: as §1

[14] = system: Streptococcus pyogenes PIU 2548; assay type: cell-based; details: code NN, BHI agar, 35-37° C., 20-24 hours, unit assumed
Method: as §1

[15] = system: Nocardia Asteroides ATCC 99700; assay type: cell-based; details: code VV, BHI agar, 35-37° C., 20-24 hours, unit assumed
Method: as §1

[16] = system: Staphylococcus aureus A-5278; assay type: cell-based; details: code CC, BHI agar, 35-37° C., 20-24 hours, unit assumed
Method: as §1

[17] = system: Streptococcus pyogenes 930; assay type: cell-based; details: code MM, BHI agar, 35-37° C., 20-24 hours, unit assumed
Method: as §1

[18] = system: Staphylococcus epidermidis 3519; assay type: cell-based; details: code HH, BHI agar, 35-37° C., 20-24 hours, unit assumed
Method: as §1

[19] = system: Staphylococcus aureus NCTC 10649M; assay type: cell-based; details: code EE, BHI agar, 35-37° C., 20-24 hours, unit assumed
Method: as §1

For `CCC1OC(=O)CC(=O)C(C)C(OC2OC(C)CC(N(C)C)C2O)C(C)(OCC=Cc2cnc3ccccc3c2)CC(C)C(=O)C(C)C2NC(=O)OC12C` (stereo not shown) [Example 2, Compound of Formula (XI), R^p is Hydrogen, Y is Hydrogen, R^2 is 3-quinolyl, R^3 is Hydrogen and R^4 is Hydrogen], which Antibacterial Activity (MIC's) (Escherichiacoli JUHL) is on record?
Its Antibacterial Activity (MIC's) is 100 µg/mL.

What about the Antibacterial Activity (MIC's) (Escherichiacoli SS) of the same molecule?
The Antibacterial Activity (MIC's) was 0.39 µg/mL.

And the Antibacterial Activity (MIC's) [1]?
The Antibacterial Activity (MIC's) was 8 µg/mL.

What about the Antibacterial Activity (MIC's) [2] of the same molecule?
The Antibacterial Activity (MIC's) was 8 µg/mL.

And the Antibacterial Activity (MIC's) [3]?
The Antibacterial Activity (MIC's) was 0.2 µg/mL.

What about the Antibacterial Activity (MIC's) [4] of the same molecule?
Its Antibacterial Activity (MIC's) is 0.03 µg/mL.

What about the Antibacterial Activity (MIC's) [5] of the same molecule?
The Antibacterial Activity (MIC's) was 6.2 µg/mL.

And the Antibacterial Activity (MIC's) [6]?
Its Antibacterial Activity (MIC's) is 0.01 µg/mL.

And the Antibacterial Activity (MIC's) [7]?
Its Antibacterial Activity (MIC's) is 0.02 µg/mL.

And the Antibacterial Activity (MIC's) [8]?
The Antibacterial Activity (MIC's) was greater than 100 µg/mL.

And the Antibacterial Activity (MIC's) [9]?
The Antibacterial Activity (MIC's) was 0.39 µg/mL.

What about the Antibacterial Activity (MIC's) [10] of the same molecule?
The Antibacterial Activity (MIC's) was 0.02 µg/mL.

And the Antibacterial Activity (MIC's) (Candida albicans CCH 442)?
The Antibacterial Activity (MIC's) was greater than 100 µg/mL.

And the Antibacterial Activity (MIC's) [11]?
The Antibacterial Activity (MIC's) was 0.39 µg/mL.

And the Antibacterial Activity (MIC's) [12]?
Its Antibacterial Activity (MIC's) is 0.5 µg/mL.

And the Antibacterial Activity (MIC's) [13]?
The Antibacterial Activity (MIC's) was 0.03 µg/mL.

What about the Antibacterial Activity (MIC's) [14] of the same molecule?
The Antibacterial Activity (MIC's) was 0.2 µg/mL.

What about the Antibacterial Activity (MIC's) [15] of the same molecule?
The Antibacterial Activity (MIC's) was 0.2 µg/mL.

What about the Antibacterial Activity (MIC's) [16] of the same molecule?
The Antibacterial Activity (MIC's) was greater than 100 µg/mL.

And the Antibacterial Activity (MIC's) [17]?
Its Antibacterial Activity (MIC's) is 50 µg/mL.

And the Antibacterial Activity (MIC's) [18]?
Its Antibacterial Activity (MIC's) is 0.39 µg/mL.

What about the Antibacterial Activity (MIC's) [19] of the same molecule?
The Antibacterial Activity (MIC's) was 0.39 µg/mL.

With `CC[C@H]1OC(=O)[C@H](C)[C@@H](O[C@H]2C[C@@](C)(OC)[C@@H](O)[C@H](C)O2)[C@H](C)[C@@H](O[C@@H]2O[C@H](C)C[C@H](N(C)C)[C@H]2O)[C@](C)(O)C[C@@H](C)C(=O)[C@H](C)[C@@H](O)[C@]1(C)O` [Ery. A, Erythromycin A, reference compound] as the molecule, how does the Antibacterial Activity (MIC's) (Escherichiacoli JUHL) read?
The Antibacterial Activity (MIC's) was greater than 100 µg/mL.

And the Antibacterial Activity (MIC's) (Escherichiacoli SS)?
The Antibacterial Activity (MIC's) was 0.78 µg/mL.

And the Antibacterial Activity (MIC's) [1]?
The Antibacterial Activity (MIC's) was 4 µg/mL.

And the Antibacterial Activity (MIC's) [3]?
The Antibacterial Activity (MIC's) was 0.2 µg/mL.

And the Antibacterial Activity (MIC's) [4]?
The Antibacterial Activity (MIC's) was 0.06 µg/mL.

What about the Antibacterial Activity (MIC's) [5] of the same molecule?
The Antibacterial Activity (MIC's) was 3.1 µg/mL.

And the Antibacterial Activity (MIC's) [6]?
The Antibacterial Activity (MIC's) was 0.05 µg/mL.

And the Antibacterial Activity (MIC's) [7]?
Its Antibacterial Activity (MIC's) is 0.02 µg/mL.

What about the Antibacterial Activity (MIC's) [8] of the same molecule?
The Antibacterial Activity (MIC's) was greater than 100 µg/mL.

What about the Antibacterial Activity (MIC's) [9] of the same molecule?
The Antibacterial Activity (MIC's) was 3.1 µg/mL.

What about the Antibacterial Activity (MIC's) [10] of the same molecule?
Its Antibacterial Activity (MIC's) is 0.05 µg/mL.

What about the Antibacterial Activity (MIC's) (Candida albicans CCH 442) of the same molecule?
The Antibacterial Activity (MIC's) was greater than 100 µg/mL.

What about the Antibacterial Activity (MIC's) [11] of the same molecule?
The Antibacterial Activity (MIC's) was 0.2 µg/mL.

What about the Antibacterial Activity (MIC's) [12] of the same molecule?
Its Antibacterial Activity (MIC's) is 16 µg/mL.

And the Antibacterial Activity (MIC's) [13]?
Its Antibacterial Activity (MIC's) is 0.06 µg/mL.

What about the Antibacterial Activity (MIC's) [14] of the same molecule?
The Antibacterial Activity (MIC's) was 6.2 µg/mL.

And the Antibacterial Activity (MIC's) [15]?
Its Antibacterial Activity (MIC's) is 0.1 µg/mL.

What about the Antibacterial Activity (MIC's) [16] of the same molecule?
Its Antibacterial Activity (MIC's) is greater than 100 µg/mL.

And the Antibacterial Activity (MIC's) [17]?
Its Antibacterial Activity (MIC's) is greater than 100 µg/mL.

What about the Antibacterial Activity (MIC's) [18] of the same molecule?
Its Antibacterial Activity (MIC's) is 0.39 µg/mL.

What about the Antibacterial Activity (MIC's) [19] of the same molecule?
The Antibacterial Activity (MIC's) was 0.39 µg/mL.

For `C=CCC1C(=O)OC(CC)C2(C)OC(=O)NC2C(C)C(=O)C(C)CC(C)(OCC=Cc2cnc3ccccc3c2)C(OC2OC(C)CC(N(C)C)C2O)C(C)C1=O` (stereo not shown) [Example 5, Compound of Formula (XI), R^p is Hydrogen, Y is Hydrogen, R^2 is 3-quinolyl R^3 is —CH2CH═CH2 and R^4 is hydrogen], which Antibacterial Activity (MIC's) (Escherichiacoli JUHL) is on record?
Its Antibacterial Activity (MIC's) is greater than 100 µg/mL.

And the Antibacterial Activity (MIC's) (Escherichiacoli SS)?
The Antibacterial Activity (MIC's) was greater than 100 µg/mL.

What about the Antibacterial Activity (MIC's) [2] of the same molecule?
Its Antibacterial Activity (MIC's) is greater than 128 µg/mL.

What about the Antibacterial Activity (MIC's) [3] of the same molecule?
The Antibacterial Activity (MIC's) was greater than 100 µg/mL.

And the Antibacterial Activity (MIC's) [4]?
The Antibacterial Activity (MIC's) was 32 µg/mL.

And the Antibacterial Activity (MIC's) [5]?
The Antibacterial Activity (MIC's) was greater than 100 µg/mL.

What about the Antibacterial Activity (MIC's) [6] of the same molecule?
The Antibacterial Activity (MIC's) was 100 µg/mL.

And the Antibacterial Activity (MIC's) [7]?
Its Antibacterial Activity (MIC's) is 25 µg/mL.

And the Antibacterial Activity (MIC's) [8]?
Its Antibacterial Activity (MIC's) is greater than 100 µg/mL.

What about the Antibacterial Activity (MIC's) [9] of the same molecule?
Its Antibacterial Activity (MIC's) is greater than 100 µg/mL.

What about the Antibacterial Activity (MIC's) [10] of the same molecule?
The Antibacterial Activity (MIC's) was 100 µg/mL.

And the Antibacterial Activity (MIC's) (Candida albicans CCH 442)?
The Antibacterial Activity (MIC's) was greater than 100 µg/mL.

What about the Antibacterial Activity (MIC's) [11] of the same molecule?
The Antibacterial Activity (MIC's) was greater than 100 µg/mL.

And the Antibacterial Activity (MIC's) [12]?
The Antibacterial Activity (MIC's) was greater than 128 µg/mL.

And the Antibacterial Activity (MIC's) [13]?
The Antibacterial Activity (MIC's) was 32 µg/mL.

And the Antibacterial Activity (MIC's) [14]?
The Antibacterial Activity (MIC's) was greater than 100 µg/mL.

What about the Antibacterial Activity (MIC's) [15] of the same molecule?
The Antibacterial Activity (MIC's) was greater than 100 µg/mL.

What about the Antibacterial Activity (MIC's) [16] of the same molecule?
Its Antibacterial Activity (MIC's) is greater than 100 µg/mL.

What about the Antibacterial Activity (MIC's) [17] of the same molecule?
The Antibacterial Activity (MIC's) was greater than 100 µg/mL.

And the Antibacterial Activity (MIC's) [18]?
The Antibacterial Activity (MIC's) was greater than 100 µg/mL.

And the Antibacterial Activity (MIC's) [19]?
The Antibacterial Activity (MIC's) was greater than 100 µg/mL.
